According to patent US9642854B2, “Flavanoid compounds and process for preparation thereof” (Council of Scientific & Industrial Research, priority 2009, dated 2017):
Values after ≈ are worked out from the molar mass of the structure shown. Where two headings read alike, the source gives them in different places.

How the values were obtained:
Format in all cases: cell-based, Helicobacter pylori
H. pylori [1] = assay: MIC and MBC by microbroth dilution assay; details: Helicobacter pylori
Protocol: The compounds, serially diluted ([…]) in Muller Hinton broth containing 5% FCS, were incubated in 96-well microtitre plate containing fresh cultures of HP001 (˜5.5×10^6 CFU/mL) or ATCC® 43504 (2.65×10^6 CFU/ml) in a final volume of […]. After 72-h of incubation under microaerophilic condition at 37° C., […] of cultures wherein no growth had been detected were streaked on fresh brain heart infusion agar plates for MBC determination.
In microbroth dilution assay employing one clinical and one standard strain, both the bacteriostatic and the bactericidal values were determined for all four compounds as well as for clarithromycin (Table 4). Two-fold serial dilutions were prepared in 96-well microtitre plate containing a total volume of 0.1 mL Mueller Hinton broth supplemented with 5% FCS. A 3-day old liquid culture was diluted 10 times in Mueller Hinton broth and 0.1 mL of these cultures was inoculated into each well to give a final concentration of ˜10^6 CFU/mL. The plates were incubated for 3 days in a microaerophilic atmosphere at 37° C. Following incubation, the plates were examined visually, and the lowest concentration showing complete inhibition of growth was recorded as the MIC of the respective compound (Hachem et al., 1996). Aliquots (0.1 mL) of 72-h culture in which no growth had been detected were taken from the wells of the above microtitre plates and used to streak on fresh BHI agar plates.

H. pylori [2] = assay: Anti H. pylori screening by disc diffusion susceptibility assay; details: 100 and 200 mg/disc (so in the source), 72 h
Protocol: The discs were impregnated with […] of each of the compounds, dissolved either in ethanol or DMSO, and the zone of inhibition was measured after 72 h of growth under microaerophilic conditions at 37° C. Inhibition zone diameter ranging 10-20 mm was given a score of ^+, 20-30 mm as ^++ and that of >30 mm as ^+++, as obtained employing dose range of […]/disc. The detailed structural information of the molecules is provided under ‘Description of the Compounds’.
Methods and protocols for the determination of inhibition zone diameter are as stated under Experiment 1, and that of MIC values by microbroth dilution assay as in Experiment 3. ‘Nil’ means zone of inhibition below 10 mm.
The anti H. pylori activity of all 16 flavonoid molecules, 2 naturally isolated and 14 synthetic derivatives, was screened by disc diffusion sensitivity assay employing 2 clinical strains HP001 and HP002, and three standard strains ATCC® 700392, 43504 and 49503. A 0.5 mL inoculum (10^8 CFU/mL) for each bacterial strain tested was flooded on freshly prepared Brain Heart Infusion (BHI) agar plates supplemented with 7% FCS, 0.5% IsoVitalex and 0.0025% DENT® and the discs (5 mm diameter) containing different compounds or antibiotics (dissolved either in ethanol or DMSO) were placed on the agar surface. After incubation for 3 days in a microaerophilic atmosphere at 37° C., the diameter of the zone of inhibition was measured (Glupczynsky, 1996; McNulty et al., 2002).

H. pylori [3] = assay: Time kill kinetic analyses in biphasic culture; details: for killing at MIC dose (1×MIC): up to 36 h
H. pylori [4] = assay: Anti H. pylori spectrum (MIC) by agar dilution method; details: for MIC50 / MIC: Helicobacter pylori; for MIC50: MIC against 50% of the strains of the panel, read-out: MIC50
Protocol: MIC was determined using agar dilution assay following the CLSI® guidelines. Six clinical isolates and four standard strains were used for this study. Five microlitre of freshly grown 3-day old culture (˜1×10^8 CFU/mL) was streaked in plates containing 2-fold serial dilution of the compounds ranging […], and incubated under microaerophilic condition at 37° C. After 72 h, the plates were inspected visually for absence of growth to assess the MIC values. The experiment was performed in duplicates. MIC50 is defined as the dose (μg/ml) required for killing 50% of the strains.
Plates contained two-fold serial dilutions of the compounds ranging from […]. Five microlitres of 3-day old freshly grown H. pylori culture (^˜10^8 CFU/mL) was inoculated onto drug-containing BHI agar plates supplemented with 7% FCS, 0.5% IsoVitalex and 0.0025% DENT®, which were then incubated for 3 days under microaerophilic condition at 37° C.

H. pylori [5] = assay: Acid stability study (pH ~2.0, 2 h, then MIC/MBC by microbroth dilution); details: Helicobacter pylori
Protocol: Details of experimental protocol are described under Experiment 7. MIC/MBC values were determined by microbroth dilution assay.
A 100 μL stock of CPP-1, NMC-1, NMC-2 and CPP-3 (1-2 mg/mL) was treated with 20-30 μL of 0.12 NHCl to bring the pH of the solution to ^˜2.0, and kept at 25° C. for 2 h (Funatogawa et al., 2004). Such acid-treated samples were then serially diluted (2 fold) with medium in 96-well microtitre plates to determine the MIC and the MBC values by microbroth dilution assay as detailed under Experiment 3.

[6] = ATCC43504, microbroth dilution, ATCC 43504
[7] = 72 h, panel of 6 clinical isolates and 4 standard strains, read-out: MIC Range
[8] = clinical strain HP001, read-out: MIC
[9] = clinical strain HP002, read-out: MIC
[10] = clinical strain HP003, read-out: MIC
[11] = clinical strain HP004, read-out: MIC
[12] = clinical strain HP005, read-out: MIC
[13] = clinical strain HP006, read-out: MIC
[14] = standard strain 43504, read-out: MIC
[15] = standard strain 43629, read-out: MIC
[16] = standard strain 49503, read-out: MIC
[17] = standard strain 700392, read-out: MIC
[18] = 2 h, pH ~2.0, 2 h, 25° C., 43504, read-out: MBC, Acid treated
[19] = 2 h, pH ~2.0, 2 h, 25° C., 43504, read-out: MIC, Acid treated
[20] = 2 h, pH ~2.0, 2 h, 25° C., HP001, read-out: MBC, Acid treated
[21] = 2 h, pH ~2.0, 2 h, 25° C., HP001, read-out: MIC, Acid treated
[22] = not acid treated, 43504, read-out: MBC, Control
[23] = not acid treated, 43504, read-out: MIC, Control
[24] = not acid treated, HP001, read-out: MBC, Control
[25] = not acid treated, HP001, read-out: MIC, Control

Structure (SMILES) | MBC (H. pylori [1]; [6]) [µg/mL] | MIC (H. pylori [1]; [6]) [µg/mL] | MBC (H. pylori [1]; microbroth dilution, HP001) [µg/mL] | MIC (H. pylori [1]; microbroth dilution, HP001) [µg/mL] | Inhibition zone diameter (score) (H. pylori [2]; ATCC standard strain 43504) | Inhibition zone diameter (score) (H. pylori [2]; ATCC standard strain 49503) | Inhibition zone diameter (score) (H. pylori [2]; ATCC standard strain 700392) | Inhibition zone diameter (score) (H. pylori [2]; clinical strain HP001) | Inhibition zone diameter (score) (H. pylori [2]; clinical strain HP002) | killing at MIC dose (1×MIC) (H. pylori [3]; HP001) | MIC50 (H. pylori [4]; 72 h) [µg/mL] | MIC (H. pylori [4]; [7]) [µg/mL] | MIC50 (H. pylori [4]) [µg/mL] | MIC (H. pylori [4]; [8]) [µg/mL] | MIC (H. pylori [4]; [9]) [µg/mL] | MIC (H. pylori [4]; [10]) [µg/mL] | MIC (H. pylori [4]; [11]) [µg/mL] | MIC (H. pylori [4]; [12]) [µg/mL] | MIC (H. pylori [4]; [13]) [µg/mL] | MIC (H. pylori [4]; [14]) [µg/mL] | also measured
CN1CCN(CCCCCCOc2cc(O)c3c(=O)cc(-c4ccccc4)oc3c2)CC1 [NMC-1, 5-Hydroxy-7-[6-(4-methyl-piperazin-1-yl)-hexyloxy]-2-phenyl-chromen-4-one] | 25 (≈ 57.3 µM) | 6.25 (≈ 14.3 µM) | 12.5 (≈ 28.6 µM) | 6.25 (≈ 14.3 µM) | + (Inhibition zone diameter ranging 10-20 mm was given a score of ^+) | + (Inhibition zone diameter ranging 10-20 mm was given a score of ^+) | + (Inhibition zone diameter ranging 10-20 mm was given a score of ^+) | + (Inhibition zone diameter ranging 10-20 mm was given a score of ^+) | ++ (20-30 mm as ^++) | could not however exert complete killing even at 36 h | ~6.25 (≈ 14.3 µM) | 6.25 to 12.5 (≈ 14.3 to 28.6 µM) | 6.25 (≈ 14.3 µM) | 12.5 (≈ 28.6 µM) | 6.25 (≈ 14.3 µM) | < 6.25 | < 6.25 | < 6.25 | < 6.25 | < 12.5 | decrease in cell count within 36 h (H. pylori [3]; ATCC 43504, at MIC value (6.25 μg/mL)): 1 log; MIC (H. pylori [4]; [15]): 12.5 µg/mL (≈ 28.6 µM); MIC (H. pylori [4]; [16]): 6.25 µg/mL (≈ 14.3 µM); MIC (H. pylori [4]; [17]): 12.5 µg/mL (≈ 28.6 µM); MBC (H. pylori [5]; [18]): < 25000 µg/mL; MIC (H. pylori [5]; [19]): 25000 µg/mL (≈ 57300 µM); MBC (H. pylori [5]; [20]): 25000 µg/mL (≈ 57300 µM); MIC (H. pylori [5]; [21]): 12500 µg/mL (≈ 28600 µM); MBC (H. pylori [5]; [22]): 25000 µg/mL (≈ 57300 µM); MIC (H. pylori [5]; [23]): 6250 µg/mL (≈ 14300 µM); MBC (H. pylori [5]; [24]): 12500 µg/mL (≈ 28600 µM); MIC (H. pylori [5]; [25]): 6250 µg/mL (≈ 14300 µM)
CN1CCN(CCCOc2cc(O)c3c(=O)cc(-c4ccccc4)oc3c2)CC1 [NMC-2, 5-Hydroxy-7-[3-(4-methyl-piperazin-1-yl)-propoxy]-2-phenyl-chromen-4-one] | 50 (≈ 127 µM) | 12.5 (≈ 31.7 µM) | 25 (≈ 63.4 µM) | 12.5 (≈ 31.7 µM) | + (Inhibition zone diameter ranging 10-20 mm was given a score of ^+) | + (Inhibition zone diameter ranging 10-20 mm was given a score of ^+) | + (Inhibition zone diameter ranging 10-20 mm was given a score of ^+) | + (Inhibition zone diameter ranging 10-20 mm was given a score of ^+) | ++ (20-30 mm as ^++) | did not kill the bacteria completely even at 36 h | ~12.5 (≈ 31.7 µM) | 6.25 to 100 (≈ 15.8 to 254 µM) | 12.5 (≈ 31.7 µM) | 12.5 (≈ 31.7 µM) | 6.25 (≈ 15.8 µM) | 12.5 (≈ 31.7 µM) | 12.5 (≈ 31.7 µM) | 6.25 (≈ 15.8 µM) | 12.5 (≈ 31.7 µM) | 12.5 (≈ 31.7 µM) | time to complete killing (H. pylori [3]; ATCC 43504, 2×MIC (clarithromycin 0.08, CPP-1 and NMC-1 12.5, NMC-2 and CPP-3 25 μg/mL)): ≤ 12 h; killing at MIC dose (H. pylori [3]; ATCC 43504, MIC ([…])): could not produce complete killing; time at which killing/inhibition became evident (H. pylori [3]; HP001, biphasic culture): > 9 h; MIC (H. pylori [4]; [15]): 25 µg/mL (≈ 63.4 µM); MIC (H. pylori [4]; [16]): 3.12 µg/mL (≈ 7.92 µM); MIC (H. pylori [4]; [17]): 12.5 µg/mL (≈ 31.7 µM); MIC Range (H. pylori [4]; panel of 6 clinical isolates and 4 standard strains): 3.125 to 12.5 µg/mL; MBC (H. pylori [5]; [18]): < 50000 µg/mL; MIC (H. pylori [5]; [19]): 25000 µg/mL (≈ 63400 µM); MBC (H. pylori [5]; [20]): 50000 µg/mL (≈ 127000 µM); MIC (H. pylori [5]; [21]): 25000 µg/mL (≈ 63400 µM); MBC (H. pylori [5]; [22]): 50000 µg/mL (≈ 127000 µM); MIC (H. pylori [5]; [23]): 12500 µg/mL (≈ 31700 µM); MBC (H. pylori [5]; [24]): 25000 µg/mL (≈ 63400 µM); MIC (H. pylori [5]; [25]): 12500 µg/mL (≈ 31700 µM)
